Test results from PubChem BioAssay (NCI).
“And” between values parts separate entries of the source, which are not always exact repeats. Equal values may be shown once.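 Results reflect a 48-hour exposure of cells in 96-well plates to compound at five concentrations. GI50 is the concentration that inhibits growth by half. The concentration for full growth arrest is given as TGI.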 Where a SMILES comes first, the peptide text is derived from it. The star is where a group is joined. Cbz = O=C(OCc1ccccc1)*; CH2Cl = ClC*

Assays:
Experiment in all cases: NCI tumour cell line growth inhibition, 48 h
[1] = tested on: DLD-1 colon
[2] = tested on: DMS 114 small cell lung
[3] = tested on: DMS 273 small cell lung
[4] = tested on: HOP-18 NSCLC
[5] = tested on: KM20L2 colon
[6] = tested on: RXF-631 renal
[7] = tested on: SNB-78 CNS
[8] = tested on: XF 498 CNS
[9] = tested on: MDA-N
[10] = tested on: P388 leukemia
[11] = tested on: P388/ADR leukemia
[12] = tested on: SN12K1 renal

Row | Compound | TGI [1] [µM] | TGI [2] [µM] | TGI [3] [µM] | TGI [4] [µM] | TGI [5] [µM] | TGI [6] [µM] | TGI [7] [µM] | TGI [8] [µM] | further results
1 | OCC1OC(c2nc(C3=NCCCN3)cs2)C(O)C1O (centres undefined) | > 100 | > 100 | > 100 | > 100 | > 100 | > 100 | > 100 | > 100 | –
2 | O=C(CCc1n[nH]c(=S)o1)Nc1ccccc1C(F)(F)F | > 100 | > 100 | > 100 | > 100 | > 100 | > 100 | > 100 | – | –
3 | O=C1Nc2ccccc2/C1=N\[O-].O=C1Nc2ccccc2/C1=N\[O-].[Cu+2] | – | – | – | – | – | – | – | – | GI50 [9]: > 100 µM; TGI [9]: > 100 µM
4 | CCN1CCC(O)(c2ccc(OC)cc2)C(C(=O)c2ccc(OC)cc2)C1 (centres undefined) | 36.3 | 40.8 | 50.2 | – | 33.2 | 47.5 | 59.3 | 31.7 | –
5 | CCOC(=O)Nc1ccc(C)c(NC(=O)OCC)c1 | – | – | – | – | – | – | – | – | TGI [9]: > 100 µM
6 | COC1(OC)C(N(C)C)=C(Cl)C(=O)/C1=C/C=O | > 100 | > 100 | > 100 | > 100 | > 100 | – | – | – | –
7 | COc1cc2c(c(OC)c1OC)-c1ccc(SC)c(=O)cc1C(NC=O)CC2 (centres undefined) | > 100 | < 0.01 | > 100 | > 100 | < 0.01 | – | > 100 | > 100 | TGI [9]: < 0.01 µM
8 | O=C(c1ccccc1Br)C(F)(F)F | – | – | – | – | – | – | – | – | TGI [9]: > 100 µM
9 | N#C/C1=C(\N)CCSSSC1 | > 100 | > 100 | > 100 | – | 49.3 | > 100 | > 100 | > 100 | –
10 | O=C1/C(=C/c2ccc3c(c2)OCO3)SC2C=Nc3ccccc3N12 (centres undefined) | > 100 | > 100 | > 100 | > 100 | > 100 | > 100 | > 100 | > 100 | –
11 | C=C(Cl)C(Br)(CCl)CCC(Br)C(C)(C)Cl (centres undefined) | – | – | – | – | – | – | – | – | GI50 [9]: 2.05 µM; TGI [9]: 7.34 µM and 4.3 µM
12 | CN(C)CC[PH+](c1ccccc1)c1ccccc1.CN(C)CC[PH+](c1ccccc1)c1ccccc1.[Cl-].[Pd+2] | – | – | – | – | – | – | – | – | GI50 [9]: > 100 µM; TGI [9]: > 100 µM
13 | Cc1ccc(NC(=O)CCc2cc(C(C)(C)C)nc(=S)[nH]2)cc1C | – | > 100 | > 100 | > 100 | > 100 | – | > 100 | > 100 | –
14 | Cc1ccc(/C=C/C(=O)c2sc(-c3nc(C)c(C(=O)/C=C/c4ccc(C)cc4)s3)nc2C)cc1 | > 100 | > 100 | > 100 | > 100 | > 100 | > 100 | > 100 | – | –
15 | Cc1cc(Cl)ccc1NC(=O)C(=O)Cc1nc2ccccc2o1 | > 100 | > 100 | > 100 | > 100 | > 100 | > 100 | > 100 | > 100 | –
16 | O=C(/C=C/c1cccc2ccccc12)c1ccccc1Cl | 24 | 27.6 | 31.5 | 33.3 | 25.6 | 41.9 | 40.9 | 20.6 | –
17 | Oc1cccnc1[Se] | – | – | – | – | – | – | – | – | TGI [9]: > 100 µM
18 | [N-]=[N+]=N[C@H]1C[C@@H](CO)O[C@H]1n1cnc2c(N)ncnc21 | > 100 | > 100 | > 100 | > 100 | > 100 | – | > 100 | > 100 | –
19 | NC(=O)C12CC3CC(CC(F)(C3)C1)C2 | > 100 | > 100 | > 100 | – | > 100 | – | > 100 | > 100 | –
20 | C1=CC(N(c2ccccc2)C2C=CCCC2)CCC1 (centres undefined) | > 100 | > 100 | > 100 | > 100 | > 100 | – | – | – | –
21 | O=c1ccn([C@H]2CSC[C@@H](CO)C2)c(=O)[nH]1 | > 100 | > 100 | > 100 | > 100 | > 100 | > 100 | > 100 | – | –

Row | Compound | TGI [1] [µM] | TGI [2] [µM] | TGI [3] [µM] | TGI [4] [µM] | TGI [5] [µM] | TGI [6] [µM] | TGI [7] [µM] | TGI [8] [µM] | further results
22 | CN(C)C(n1cc2c(c1)-c1ccc(Cl)cc1C(c1ccccc1F)=NC2)n1cc2c(c1)-c1ccc(Cl)cc1C(c1ccccc1F)=NC2 | – | – | – | – | – | – | – | – | TGI [9]: 52.7 µM
23 | CCC(C)COC(=O)c1ccc(N=Cc2ccc(C=Nc3ccc(C(=O)OCC(C)CC)cc3)cc2)cc1 (centres undefined) | > 100 | > 100 | > 100 | > 100 | > 100 | > 100 | > 100 | – | –
24 | CCCc1nc(NC#N)nc(C(=O)Nc2ccccc2)c1CC | > 100 | > 100 | > 100 | > 100 | > 100 | > 100 | > 100 | > 100 | –
25 | COc1cc(NCc2ccc3nc(N)nc(N)c3c2C)cc(OC)c1OC (tested in a mixture with another compound) | 95.6 | 37.7 | 12.3 | 146 | 48.5 | – | 116 | 8.19 | GI50 [9]: 0.025 µM; TGI [9]: 44.9 µM; TGI [10]: 10 µM; TGI [11]: 12.7 µM; TGI [12]: 36.6 µM
26 | COc1ccc(NC(=O)/C(Cc2cc(=O)oc3cc(O)ccc23)=N\NC(C)(C)C)c(OC)c1 | – | – | – | – | > 100 | – | > 100 | > 100 | –
27 | CN1CCOC(c2ccccc2)O1 (centres undefined) | > 100 | > 100 | > 100 | > 100 | > 100 | > 100 | > 100 | – | –
28 | O=C(Nc1nc(=S)c2c(ncn2CCOC(=O)c2ccccc2)[nH]1)c1ccccc1 | > 100 | > 100 | > 100 | > 100 | > 100 | – | > 100 | – | –
29 | CC(=O)c1sc(Nc2nnc(-c3ccc(-c4nnc(Nc5nc(C)c(C(C)=O)s5)o4)cc3)o2)nc1C | > 100 | > 100 | > 100 | > 100 | > 100 | – | > 100 | – | –
30 | CN(C)CC1CCCC/C1=N/OC(=O)c1ccc(Cl)cc1 (centres undefined) | > 100 | – | > 100 | > 100 | > 100 | – | > 100 | > 100 | –
31 | CC(=O)OC12C=CC(=O)N1c1ccccc1C(=O)O2 (centres undefined) | > 100 | – | > 100 | > 100 | > 100 | – | > 100 | > 100 | –
32 | CCC[CH2][Sn]([Cl])([CH2]CCC)[CH2]CCC | 1.02 | 0.225 | – | – | 0.295 | – | 0.313 | 0.202 | GI50 [1]: 0.0853 µM; GI50 [2]: 0.068 µM; GI50 [5]: 0.136 µM; GI50 [7]: 0.129 µM; GI50 [8]: 0.0599 µM
33 | Cc1cc(N(CCC#N)CCC#N)ccc1N=Nc1ccc(C(=O)O)cc1 | – | > 100 | > 100 | > 100 | – | – | > 100 | > 100 | –
34 | CC1c2c(Cl)nc3ccccc3c2Oc2c1c(Cl)nc1ccccc21 | > 100 | > 100 | > 100 | > 100 | > 100 | – | > 100 | – | –
35 | COC(=O)C(Cc1nc2ccc(Cl)cc2[nH]c1=O)/C(=N\N)C(=O)Nc1cc(C)c(Cl)cc1S(=O)(=O)O (centres undefined) | > 100 | > 100 | – | – | – | – | > 100 | – | –
36 | CCOC(=O)C(=[N+]=[N-])[Si](C)(C)C | > 100 | > 100 | > 100 | > 100 | > 100 | – | > 100 | > 100 | –
37 | C1CN2CCN3CCN4CCN1[P+]243 | > 100 | > 100 | > 100 | > 100 | > 100 | – | > 100 | > 100 | –
38 | CC(C)CC(NC(=O)OCc1ccccc1)C(=O)NC(Cc1ccccc1)C(=O)CCl (stereo not drawn) (Cbz-Leu-Phe-CH2Cl; configuration not given here) | – | – | – | – | – | – | – | – | TGI [9]: 3.19 µM
39 | CCOc1ccccc1NC(=O)C(=O)CC(=O)c1sc(Nc2nnc(-c3ccc(Cl)c(Cl)c3)o2)nc1C | > 100 | > 100 | > 100 | > 100 | > 100 | – | > 100 | – | –
40 | CCOc1ccc(NC(=O)C(=O)CC(=O)c2c(C)n([O-])c3ccccc3[n+]2=O)cc1 | – | > 100 | > 100 | > 100 | > 100 | > 100 | > 100 | > 100 | –
41 | COc1ccc(CC2NCCc3c2[nH]c2ccccc32)cc1 (centres undefined) | > 100 | > 100 | 87.7 | – | > 100 | 73.5 | > 100 | 66.5 | –
